According to US10953003B2, “Methods for treating cancer” (X4 Pharmaceuticals, Inc., priority 2015, dated 2021):

Assays:
[1] = tested on: 786 cells; experiment: 786 cells treated in vitro for 24 hours, normoxic and hypoxic (1% O2); assay type: cell-based, human; details: 786 hypoxic cells in vitro
Excerpt: FIG. 14B illustrates mir-30a and mir-30c microRNA and (FIG. 14C) total HIF-2α, RNA expression from the same cells from FIG. 14A.

[2] = tested on: A375 cells; experiment: A375 cells with or without constitutively active Stat3 construct, treated 24 h; assay type: cell-based; details: A375 cells +/- constitutively active Stat3, 24 h, normoxic or hypoxic; FIG. 15
Excerpt: FIG. 15A illustrates Western blot results from lysates of A375 cells or A375 cells transfected with a constitutively active Stat3 construct. […] Without wishing to be bound by theory, it is believed that Stat3 is important in promoting CXCL-12 mediated invasion of tumors.

[3] = tested on: 786-0 RCC xenografts; experiment: Murine 786-0 RCC xenograft model; assay type: in vivo, mice; details: for effects on tumor growth / MDSC infiltration of tumors: 786-0 xenografts; for effects on tumor growth: nude/beige mice, tumors measured on day 7, FIG. 1A; for MDSC infiltration of tumors: CD11b+ GR-1+ cells, FIGS. 5A, 5C
Procedure: (§1) With each of the human cell lines, 1×10^7 tumor cells were implanted subcutaneously in the flanks of 36 nude/beige mice and tumors allowed to grow to roughly 7 mm in diameter. […] Therefore, on day 7, the mice were sacrificed and the tumors were measured and immediately excised and divided into three parts. One part of each tumor was paraffin-embedded for dual color immunofluorescence. Another part was mechanically disaggregated and treated with collagenase/DNAse to generate a single cell suspension for flow cytometry. The third part was frozen for future pharmacokinetic analysis. Microscope slides were made from the paraffin-embedded tumor tissue, which were stained with antibodies against CD11b, Gr-1, and FAP. The number of infiltrating CD11b+/Gr-1+ MDSC and FAP+ fibroblasts present in the tumor tissue was then determined by immunofluorescence (IF) as previously described (1).
(§2) The disaggregated tumor specimens were analyzed for CD11b+/Gr-1+ MDSC and FAP+ fibroblasts by flow cytometry. The fraction of both populations expressing CXCR4 were also determined. At the time the mice were sacrificed, the spleens were removed and cut in half. One part was disaggregated into single cell suspensions and analyzed by flow cytometry as above for MDSC. The second half was frozen for future analyses, such as PK analysis. Finally, a bone marrow (BM) sample was generated by extruding marrow from an excised femur with a syringe filled with saline and analyzed by flow cytometry for MDSC.

[4] = Phase 1 and 2a trials; cited from earlier work
[5] = tested on: A498 RCC xenografts; experiment: Murine A498 RCC xenograft model; assay type: in vivo, mice; details: for MDSC infiltration of tumors: CD11b+ GR-1+ cells, FIGS. 5B, 5D; for effects on tumor growth: nude/beige mice, tumors measured on day 7, FIG. 1B
Procedure: as §1, §2

[6] = oral axitinib; see current product label; cited from earlier work
[7] = cited from earlier work
[8] = over the range pH 1.1 to pH 7.8; cited from earlier work
[9] = tested on: renal cell carcinoma (RCC) xenografts; details: cited from earlier work

For `NCCCCN(Cc1nc2ccccc2[nH]1)[C@H]1CCCc2cccnc21` [X4P-001], the “mir-30a and mir-30c microRNA” value ([1]; FIG. 14B) was “mir-30a and mir-30c induction”, the HIF-2α ([1]; FIGS. 14A, 14C) was “HIF-2α reduction” and the “suppression of HIF-2α and induction of mir-30a and 30c” value [2] was “dependent on Stat3 expression”. For the same compound, the “effects on tumor growth” value [3] was “modest”, the “MDSC infiltration of tumors” value [3] was “significantly less MDSC infiltration” and the “level of HIF-2α” value ([3]; 786 xenograft tumors, Western blots, 8 days of treatment, FIGS. 11, 13) was “reduction in the level of HIF-2α relative to that caused by axitinib treatment”. The “pharmacodynamic activity: circulating white blood cells (WBCs)” value [4] was “dose- and concentration-related changes”, the “volume of distribution (VL)” value [4] was “high” and the “MDSC infiltration of tumors” value [5] was “significantly less MDSC infiltration”. For the same compound, the “effects on tumor growth” value [5] was “modest”.

For `CNC(=O)c1ccccc1Sc1ccc2c(/C=C/c3ccccn3)n[nH]c2c1` [axitinib, N-methyl-2-[3((E)-2-pyridin-2-yl-vinyl)-1H-indazol-6-ylsulfanyl]-benzamide], the “absorption, effect of food” value [6] is given as “not altered by food”, the pKa [7] is given as 4.8 and the “solubility in aqueous media” value [8] is given as > 0.2 µg/mL. The “micro-RNAs mir-30a and mir-30c expression” value ([3]; 786-0 xenograft tumor, after 8 days of treatment, FIG. 12) was “suppressed”, the “effects on tumor growth” value [3] was “no” and the “MDSC infiltration of tumors” value [3] was “extensive MDSC infiltration”. The “MDSC infiltration of tumors” value [5] was “extensive MDSC infiltration” and the “effects on tumor growth” value [5] was “no”.

For MI-319, the “development of sunitinib resistance” value ([9]; MI-319 given concurrently with sunitinib) is listed as “prevented”, the “infiltration of RCC xenografts with CD11b+/Gr-1+ MDSC” value ([9]; earlier work by some of the inventors, MI-319 given concurrently with sunitinib) is listed as “prevented” and the HIF-2 expression ([9]; earlier work of the inventors) is listed as “suppresses”.
